Series [1] is described as follows: Rat liver microsomal stability. The format is in vitro ADME. Conditions: SD, rat, liver microsomes, read-out: Rat_SD/Microsomes t1/2 (m). The method, then: The rat liver microsomal stability, parallel artificial membrane permeability assay (PAMPA), and aqueous kinetic solubility assay in phosphate-buffered saline (PBS) buffer were performed as described in the indicated references.
On the technique in general: Liver microsomes are vesicles of endoplasmic reticulum, rich in cytochrome P450 enzymes.

Another series has as its target T1, Bovine Xanthine Oxidase (Bos taurus, UniProt P80457).
T1 construct: purchased Sigma
The series can be described thus: Xanthine oxidase / hypoxanthine luminol chemiluminescence assay. The format is biochemical. Conditions: xanthine oxidase with hypoxanthine; mean ± SD, n in cell; read-out: X/XO IC50. The method, then:
Bovine Xanthine Oxidase (Sigma) was dialyzed in PBS to remove ammonium sulfate and stored at 4 °C. Hypoxanthine was prepared by heating in DMSO. Reactions were prepared by diluting xanthine oxidase in HBSS (final concentration 1.25 mU/mL) that contained 50 μM luminol and were preincubated 5 min with control or inhibitor before the addition of hypoxanthine at a final concentration of 0.5 mM. Luminescence was measured at 24 °C as described above.

The target of another series is T2, NOX1 (Homo sapiens, UniProt Q9Y5S8).
T2 construct: expressed in transfected cells; host or cells: Expi293 (human embryonic kidney) cells, transient transfection
T2 sequence (Q9Y5S8 1-564): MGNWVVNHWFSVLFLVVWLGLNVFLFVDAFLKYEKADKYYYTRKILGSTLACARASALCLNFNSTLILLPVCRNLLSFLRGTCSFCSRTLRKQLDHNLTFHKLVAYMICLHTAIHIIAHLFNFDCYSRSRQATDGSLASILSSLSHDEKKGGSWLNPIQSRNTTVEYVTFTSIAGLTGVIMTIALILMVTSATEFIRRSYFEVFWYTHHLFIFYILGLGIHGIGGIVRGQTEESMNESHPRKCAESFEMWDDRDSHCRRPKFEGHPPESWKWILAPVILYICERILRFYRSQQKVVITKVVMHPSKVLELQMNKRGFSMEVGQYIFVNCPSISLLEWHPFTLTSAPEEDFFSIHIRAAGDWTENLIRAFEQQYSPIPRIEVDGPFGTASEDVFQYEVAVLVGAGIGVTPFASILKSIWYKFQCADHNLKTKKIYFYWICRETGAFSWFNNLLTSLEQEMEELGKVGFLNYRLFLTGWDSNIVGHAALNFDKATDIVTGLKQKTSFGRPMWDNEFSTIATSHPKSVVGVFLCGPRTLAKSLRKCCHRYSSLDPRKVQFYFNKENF
T2 sequence (P13498 2-195 partner limits assumed): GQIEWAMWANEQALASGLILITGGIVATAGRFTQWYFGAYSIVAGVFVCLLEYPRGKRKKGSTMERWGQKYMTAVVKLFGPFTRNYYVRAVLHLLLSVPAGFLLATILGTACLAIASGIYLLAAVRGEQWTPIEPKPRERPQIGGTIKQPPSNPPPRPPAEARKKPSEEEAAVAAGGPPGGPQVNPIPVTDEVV
The series can be described thus: Expi293 whole cell assay, NOX1 overexpression. The conditions noted are these: highest dose about 100x the IC50 versus NOX2. In kind it is cell-based. On the procedure: (§1) Given concerns about previous assays for specific NOX family members we here report the first use of the Expi293 Expression System (Thermo Scientific) to overexpress NOX1, 2, 3, 4, and 5 in excess of any endogenous NOX proteins present in these cells. Transfections were performed following the manufacturer's instructions using the plasmids for each NOX as described in Supplemental Table 2 except that the enhancer solution provided with the Expi293 system was not used because it promoted enzyme activation.
(§2) After the times indicated in Supplemental Table 2, cells were washed and 50,000 added per well of a white 96-well plate (Greiner) along with 50 μM Luminol and 2.5 U horseradish peroxidase/mL in a volume of 90 μl for NOX1, NOX2, and NOX5. Inhibitors or vehicle controls were added and cells were incubated for 20 min at 37 °C prior to activation with the indicated stimuli. For NOX3 and NOX4 (constitutively active), cells were incubated with inhibitor or vehicle control prior to the addition of luminol and HRP. Chemiluminescence was measured every 2 min for 1 s per well at 37 °C in a Varioscan Multimode reader. AUC data were analyzed using GraphPad Prism using non-linear regression analysis after expressing relative to control alone (maximum ROS production).

In another series the target is T3, NOX4 (Homo sapiens, UniProt Q9NPH5).
T3 construct: expressed in transfected cells; host or cells: Expi293 (human embryonic kidney) cells, transient transfection, 48 hours
T3 sequence (Q9NPH5 1-578): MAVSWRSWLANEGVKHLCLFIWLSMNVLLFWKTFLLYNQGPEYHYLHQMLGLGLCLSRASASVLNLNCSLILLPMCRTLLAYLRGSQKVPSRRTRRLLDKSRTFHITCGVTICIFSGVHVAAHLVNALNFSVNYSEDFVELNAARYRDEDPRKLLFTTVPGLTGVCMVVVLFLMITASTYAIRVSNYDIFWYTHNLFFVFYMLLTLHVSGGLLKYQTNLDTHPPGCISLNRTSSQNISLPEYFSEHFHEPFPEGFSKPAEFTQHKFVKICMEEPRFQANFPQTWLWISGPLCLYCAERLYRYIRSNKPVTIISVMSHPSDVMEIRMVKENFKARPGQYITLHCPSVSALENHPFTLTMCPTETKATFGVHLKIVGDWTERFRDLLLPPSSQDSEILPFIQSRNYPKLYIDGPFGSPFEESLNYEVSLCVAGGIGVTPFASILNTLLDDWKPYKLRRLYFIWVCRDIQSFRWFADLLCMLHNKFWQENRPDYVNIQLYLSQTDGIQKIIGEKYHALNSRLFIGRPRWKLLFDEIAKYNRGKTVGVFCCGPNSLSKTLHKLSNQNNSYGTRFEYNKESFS
T3 sequence (P13498 2-195 partner limits assumed): T2 sequence (P13498 2-195 partner limits assumed)
The series can be described thus: Expi293 whole cell assay, NOX4 overexpression. The format is cell-based. Conditions: doses 100x higher than GSK2795039. The method, then: as §1, §2

In series [2] the test system is NOX3 reconstituted with p47phox and p67phox. The series can be described thus: NOX3 reconstituted with cytosolic phox proteins (p47phox and p67phox), data not shown. In kind it is cell-based. An excerpt:
Another experiment (data not shown) examined the potency of NCATS-SM7270 against NOX1 and NOX3 reconstituted with cytosolic phox proteins (p47phox and p67phox).

T1 sequence (P80457 whole entry): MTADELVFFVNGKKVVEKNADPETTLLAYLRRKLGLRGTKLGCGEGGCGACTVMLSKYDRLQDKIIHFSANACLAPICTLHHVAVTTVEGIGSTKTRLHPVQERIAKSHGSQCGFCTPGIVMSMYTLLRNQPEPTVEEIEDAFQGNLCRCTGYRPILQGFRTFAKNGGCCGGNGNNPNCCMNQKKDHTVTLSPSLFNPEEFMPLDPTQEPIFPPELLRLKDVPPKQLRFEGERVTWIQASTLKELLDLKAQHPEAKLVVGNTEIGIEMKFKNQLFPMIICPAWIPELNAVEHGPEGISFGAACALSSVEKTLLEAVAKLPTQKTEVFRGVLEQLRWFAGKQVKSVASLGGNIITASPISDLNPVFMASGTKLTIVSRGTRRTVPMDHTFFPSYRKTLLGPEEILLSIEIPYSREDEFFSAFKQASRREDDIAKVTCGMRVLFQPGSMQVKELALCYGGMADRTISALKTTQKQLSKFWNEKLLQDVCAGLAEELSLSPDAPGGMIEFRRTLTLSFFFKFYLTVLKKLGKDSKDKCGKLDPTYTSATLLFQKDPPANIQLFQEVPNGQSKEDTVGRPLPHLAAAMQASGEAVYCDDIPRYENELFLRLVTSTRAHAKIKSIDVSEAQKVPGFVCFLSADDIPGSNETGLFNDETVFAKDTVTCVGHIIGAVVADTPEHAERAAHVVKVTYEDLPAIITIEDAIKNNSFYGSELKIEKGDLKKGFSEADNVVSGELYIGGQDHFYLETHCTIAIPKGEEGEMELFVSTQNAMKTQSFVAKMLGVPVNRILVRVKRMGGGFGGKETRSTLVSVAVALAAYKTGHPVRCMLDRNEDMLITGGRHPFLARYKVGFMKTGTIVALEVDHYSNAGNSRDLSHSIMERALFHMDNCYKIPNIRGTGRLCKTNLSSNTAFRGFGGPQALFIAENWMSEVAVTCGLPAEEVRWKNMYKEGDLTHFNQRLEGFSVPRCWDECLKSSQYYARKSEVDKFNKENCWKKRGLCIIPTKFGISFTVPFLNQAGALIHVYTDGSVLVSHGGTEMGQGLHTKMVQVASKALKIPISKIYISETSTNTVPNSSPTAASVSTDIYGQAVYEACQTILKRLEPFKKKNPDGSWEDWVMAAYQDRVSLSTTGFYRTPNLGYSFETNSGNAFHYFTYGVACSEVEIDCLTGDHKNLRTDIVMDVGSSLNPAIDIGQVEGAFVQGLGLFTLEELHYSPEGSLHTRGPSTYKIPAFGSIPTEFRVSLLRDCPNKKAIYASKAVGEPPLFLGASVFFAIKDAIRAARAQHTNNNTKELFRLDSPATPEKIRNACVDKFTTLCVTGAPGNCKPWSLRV

For the compound `Cn1ccc(S(=O)(=O)Nc2ccnc3c2c(-c2ccc4ccn(C)c4c2)cn3C2CC2)n1` [NCATS-SM7270, N-(1-cyclopropyl-3-(1-methyl-1H-indol-6-yl)-1H-pyrrolo [2,3-b]pyridin-4-yl)-1-methyl-1H-pyrazole-3-sulfonamide], the half-life in series [1] turned out to be 3.7 min. Moreover, at Bovine Xanthine Oxidase, the IC50 worked out at 4.1 ± 5.66 µM. On NOX1, the “activity against NOX1” value is recorded as “only marginal activity at the highest dose tested”. In addition, the “activity against NOX4” value on NOX4 is “no detectable activity”. Also, the “dose needed to observe inhibition of NOX3 versus NOX2” value in series [2] is approximately 10 fold.
